Reference: patent EP0046707B1, “Derivatives of 4-aminobutyric acid and the medicines especially active on the central nervous system containing them” (priority 1980, dated 1982)
Read-outs that look alike come from different tables or passages of the source.

Experiments:
souris [1] = experiment: Anticonvulsant effect against electroshock seizures; format: in vivo; conditions: 1 h; mouse, electroshock 12.5 V for 0.5 s, 60 min after oral dosing; read-out: Dose efficace médiane de protection des crises toniques (DE 50) Electrochoc
Experimental: (§1) L'effet anticonvulsivant a été déterminé vis-à-vis des crises convulsives provoquées par l'électrochoc ou par la bicuculline.
L'électrochoc (12,5 V pendant 0,5 s) est effectué chez la souris 60 min après l'administration du produit par voie orale.
(§2) En opérant sur divers lots d'animaux avec des doses différentes du produit à étudier, on peut déterminer la dose efficace médiane (DE 50).
(§3) Les résultats sont rassemblés dans le tableau VIII ci-après et montrent les propriétés anticonvulsivan- tes nettes des produits étudiés.

[2] = test system: GABA (acide amino-4 butyrique); experiment: Effect on whole-brain GABA level; format: in vivo, souris
Experimental: Le 40039 a été administré 30 min avant le sacrifice chez la souris. Le taux de GABA a été évalué sur le cerveau entier (lots de 6 animaux) (voir tableau IX ci-après).

souris [3] = experiment: Potentiation of pentobarbital narcosis (loss of righting reflex); format: in vivo; conditions: po; mouse, p. os 1 h before pentobarbital 20 mg/kg i.p.; unit not given for DE 50; read-out: dose (p. os) provoquant 50 % d'induction de narcose (DE 50)
Experimental: Les produits à étudier ont été administrés per os chez la souris à la dose de 500 mg/kg, 1 h avant le pentobarbital injecté par voie intrapéritonéale à raison de 20 mg/kg.
On détermine le pourcentage des animaux ayant perdu le réflexe de retournement. Les résultats sont exprimés en pourcentage ou, dans quelques cas, en dose efficace 50 (DE 50) ou dose provoquant la narcose chez 50 % des animaux traités.
Les résultats figurent dans le tableau VI ci-après.

[4] = test system: acide homovanillique (HVA); experiment: Effect on central dopaminergic activity (homovanillic acid accumulation in whole brain); format: in vivo, souris; conditions: mouse whole brain, 500 mg/kg p.os
Experimental: L'effet des produits sur l'activité dopaminergique centrale a été étudié par la mesure de l'accumulation de l'acide homovanillique sur une période de 24 h après l'administration des produits chez la souris.
Le taux d'acide homovanillique (HVA) est évalué dans le cerveau entier, les animaux reçoivent une injection de probenecid (200 mg/kg i.p.) 1 h 30 min avant le sacrifice (lot de 10 animaux).

[5] = Acute toxicity (mortality over 24 h); conditions: in vivo, po, mouse, observed 24 h
Experimental: Les produits à étudier sont administrés par voie orale aux doses de 500 et 1 000 mg/kg à des lots de souris. On observe les souris pendant 24 h et note la mortalité.
Les résultats exprimés en pourcentage de mortalité figurent dans le tableau XI ci-après.

souris [6] = experiment: Actography (locomotor activity, two perpendicular light beams); format: in vivo; conditions: mouse, 500 mg/kg oral
Experimental: La mesure de l'actographie est effectuée chez la souris 45 min. après l'administration du produit. On opère sur des lots de 12 animaux, chacun d'eux étant isolé pendant 10 min. avant la mesure. Le comptage des scores est effectué par coupure de deux faisceaux lumineux perpendiculaires.
Dans le tableau IV ci-après sont rassemblés les résultats obtenus avec divers produits de l'invention administrés à la dose de 500 mg/kg par voie orale. Les résultats sont exprimés en pourcentage de variation des scores obtenus par rapport à des animaux témoins non traités.
On peut constater que les produits se répartissent en deux groupes : • ceux provoquant de l'hypomotilité tels que 40217, 40039, 40271, 40272, 40319; dans le cas où les animaux traités présentent une perte du réflexe de retournement, ce qui traduit l'effet de narcose propre du produit, on a noté PRR; • ceux provoquant de l'hypermotilité, tels que 40142, 40398, 40397, 40404, 40253, 40355, 40209; pour préciser les résultats obtenus, l'étude pour deux produits a été reprise en effet-dose suivant le même protocole. • Les résultats obtenus figurent dans le tableau V ci-après.

souris [7] = experiment: Anticonvulsant effect against bicuculline-induced tonic seizures; format: in vivo; conditions: 1 h; mouse, bicuculline 1 mg/kg i.v. 60 min after oral dosing; read-out: Dose efficace médiane de protection des crises toniques (DE 50) Bicuculline
Experimental: as §1
La bicuculline est administrée à la souris par voie intraveineuse à raison de 1 mg/kg, 60 min après le produit à étudier donné per os. On note l'effet protecteur obtenu vis-à-vis des crises toniques.
as §2, §3

rats = experiment: Electroencephalographic study (sleep/wake analysis per 24 h); format: in vivo; conditions: rat; for EV / SL / SP / ST: per 24 h
Experimental: Pour mieux comprendre l'activité hypnotique des produits selon l'invention, une étude électroencéphalographique a été effectuée sur l'un deux, à savoir CM 40039.
[…] Après une période d'habituation de 10 jours (période éclairée de 8 h à 20 h et période obscure de 20 h à 8 h), les animaux sont enregistrés pendant 5 jours avec le solvant (gomme arabique à 10 %), puis enregistrés pendant 4 jours pendant lesquels ils reçoivent le produit à 9 h chaque matin. Après cette administration chronique, les animaux sont enregistrés les 5 jours suivants (période de contrôle).
Les animaux sont enregistrés 24 h sur 24. L'étude statistique porte sur des tranches de 24 h. On fait une analyse globale sur les trois rats en cumulant les 15 journées témoins, les 12 journées de traitement, les 15 journées de contrôle. Dans chaque tranche horaire de 24 h, on évalue le temps d'éveil (EV), de sommeil lent (SL), de sommeil paradoxal (SP), de sommeil total (ST), ainsi que le rapport (en %) sommeil paradoxal/sommeil total (SP/ST) (voir tableau VII ci-après).

[8] = post-treatment 'Contrôle' period

## CCCCN(CCCC)C(=O)CCCNC(=O)CCC [40 039, Butyl-10 dioxo-4,9 diaza-5,10 tétradécane]
Souris [1]
  ED50: 250 mg/kg
[2]; mouse whole brain, 500 mg/kg p. os, 30 min before sacrifice
  Taux de GABA en µg/g cerveau: 321 ± 12 µg/g cerveau
[2]; mouse whole brain, 500 mg/kg p. os, change vs controls
  Taux de GABA p.cent/témoins: 14,6 p.cent
[2]; mouse, result in words
  taux de GABA dans le cerveau total: rapide augmentation
Souris [3]
  ED50: 200 mg/kg
[4]; 2 h
  Taux de HVA en: 798 ± 34 ng/g
[4]; 4 h
  Taux de HVA en: 894 ± 37 ng/g
[4]; 6 h
  Taux de HVA en: 659 ± 29 ng/g
[4]; 6 h, change vs time 0
  Taux de HVA (variation vs 0): 0%
[4]; 24 h
  Taux de HVA en: 441 ± 19 ng/g
[4]; time 0 (baseline)
  Taux de HVA en: 658 ± 40 ng/g
[5]; 500 mg/kg p. os, read-out: p. cent de mortalité à 500 mg/kg p. os
  mortality at 24 h: 0%
[5]; 1000 mg/kg p. os, read-out: p. cent de mortalité à 1000 mg/kg p. os
  mortality at 24 h: 100%
Souris [6]; 45 min after dosing, change of scores vs untreated controls, PRR = loss of righting reflex
  Mesure de l'actographie (p. cent scores/témoins): PRR
Souris [6]; grouping in words
  hypomotilité / hypermotilité: hypomotilité
Souris [7]
  ED50: 300 mg/kg
rats; 'Contrôle' = 5 days after end of chronic treatment
  EV: 40,3 ± 3,6
rats; [8]
  SP/ST: 13,5 ± 1,8%
  SL: 51 ± 3
  SP: 8,6 ± 1,7
  ST: 59,6 ± 3,9
rats; treatment period (12 days pooled, 3 rats), 325 mg/kg as in table head, wake time
  EV: 40,6 ± 3
rats; treatment period, paradoxical sleep
  SP: 8,1 ± 1,4
rats; treatment period, slow-wave sleep
  SL: 51,5 ± 2
rats; treatment period, total sleep
  ST: 59,5 ± 2,6
rats; treatment period, ratio paradoxical/total sleep
  SP/ST: 13,2 ± 1,9%
